Consider three compounds from patent US20050049229A1, “Therapeutic applications of 2-hydroxyacetanilide” (priority 2003, published 2005).

Data set [1] relates to carrageenan-induced rat-paw oedema. Description: carrageenan-induced rat paw oedema (plethysmographic method). The format is in vivo. The following applies: for Mean paw volume ± SEM after 5 hr: 30 min before carrageenan; for Anti-inflammatory Activity Mean ± SEM: A−B/A×100 vs control, in %. On the procedure:
The plethysmographic method (Winter et al., Proc. Soc. Exp. Biol. Med. III, 1962, pp. 544-547) was then used for recording the volume changes in the rat paw. […] Another two groups received paracetamol at a dose of 300 or 500 mg kg^−1, and a further two groups received aspirin at a dose of 150 or 300 mg kg^−1, while the control group received saline or distilled water. […] The difference in paw volumes before and after the carrageenan injections indicated the volume of inflammation. Anti-inflammatory activities were calculated as A−B/A×100, where A and B denote mean paw volume of control and drug-treated animals respectively.

In data set [2] the test system is PAF-induced mortality. Description: prevention of PAF-induced mortality in rabbits. The format is in vivo, rabbit. On the procedure: Male rabbits (New Zealand White, 3-3.5 kg) were used to test the ability of 2-hydroxyacetanilide, paracetamol and aspirin to prevent the lethality of intravenous PAF.
PAF was prepared before each injection by dissolution in saline to give a final concentration of 22 μg ml^−1. The resulting solution was injected into the marginal ear vein of the rabbits over a period of approximately 1 minute. In preliminary experiments it was established that an intravenous dose of 11 μg kg^−1 PAF was required to induce consistently fatal pulmonary thrombosis in the animals (n=6). This dose of PAF was used in subsequent experiments with 2-hydroxyacetanilide and paracetamol.
Rabbits were pretreated by intraperitoneal injection of either 2-hydroxyacetanilide (100 or 300 mg kg^−1), paracetamol (300 or 500 mg kg^−1) or aspirin (50 mg kg^−1) 2 hours before the challenging dose of PAF. Each animal was used for only one experiment.

The test system of data set [3] is platelet aggregation induced by AA, PAF or collagen. Description: in vitro platelet aggregation in human platelet rich plasma. The format is cell-based. The following applies: human PRP. Here is the method: Blood was drawn by vein puncture from healthy human volunteers reported to be free of medications for at least one week. The blood samples were mixed with 3.8% w/v sodium citrate solution (9:1) and centrifuged at 260 g for 15 minutes at 20° C. to obtain platelet rich plasma (PRP). The platelet count was determined by phase contrast microscopy and all aggregation studies were carried out at 37° C. with PRP having platelet counts between 2.5 and 3.0×10^8/ml of plasma. All experiments were performed within 2 hours of PRP preparation.
Platelet aggregation was monitored using a Dual-channel Lumi-aggregometer (Model 400 Chronolog Corporation, Chicago, USA) using 0.45 ml aliquots of PRP. The final volume was made up to 0.5 ml with the test compound dissolved either in normal saline or an appropriate solvent known to be devoid of any effect on aggregation. Aggregation was induced by arachidonic acid (AA), platelet activating factor (PAF) or collagen.
Anti-platelet aggregation effects were studied by pretreatment of PRP with 2-hydroxyacetanilide or paracetamol for 1 minute followed by the addition of the maximum dose of agonist (i.e. AA, PAF or collagen). The resulting aggregation was monitored for 5 minutes following agonist addition by the change in light transmission as a function of time.
The results were expressed as percentage inhibition after the addition of aggregation agents compared with controls. Once the anti-platelet aggregation activity of the inhibitors against these agonists was established, dose-response curves were constructed to calculate the IC50 values of the inhibitors.

Data set [4] has the same test system. Nature of the data set: in vivo platelet aggregation (PRP from orally dosed rabbits). Also on record: species or system rabbit. The following applies: Oryctolagus cuniculus, 500 mg/kg oral, blood 2 hours after. On the procedure: Both 2-hydroxyacetanilide and paracetamol were tested for in vivo platelet aggregation activity at a dose of 500 mg kg^−1. The compounds were first separately dissolved in 0.5% w/v gum tragacanth and then administered orally to albino rabbits of either sex. Control groups received only the vehicle.
Blood was drawn from the marginal ear of the rabbits 2 hours after drug administration. The blood was then mixed with 3.8% w/v sodium citrate solution (9:1) and centrifuged at 260 g for 15 minutes at 20° C. to prepare platelet rich plasma (PRP). The platelet count was determined by phase contrast microscopy and all aggregation studies were carried out at 37° C. with PRP having platelet counts between 2.5 and […] /ml of plasma. The experiments were performed within 2 hours of PRP preparation.
Platelet aggregation was monitored using a Dual-Channel Lumi-aggregometer (Model 400 Chronolog Corporation, Chicago, USA) using 0.45 ml aliquots of PRP. Aggregation was induced with platelet activating factor (PAF, 0.8 μM), collagen (20 μg mL^−1) or arachidonic acid (AA, 1.7 mM).

In data set [5] the test system is acetic acid induced writhing. Description: acetic acid induced writhing test in mice. The format is in vivo, mouse. The following applies: for No. of writhings: 30 min before 1% acetic acid IP, counted 10 minutes. Here is the method:
Analgesia was assessed by the method of Koster et al. (Federation Proceedings, 1959, 18, pp. 412-416), otherwise known as the acetic acid induced writhing test. When acetic acid is injected intraperitoneally it causes abdominal contractions or writhings, a syndrome characterized by a wave of contraction of the abdominal musculature followed by extension of hind limbs. By counting the number of writhes a measure of the effective analgesia provided can be obtained.
Male Wister mice (20-25 g) were divided into six groups, with five mice per group, for use in the writhing assay. The compounds 2-hydroxyacetanilide or paracetamol were administered orally 30 minutes prior to an intraperitoneal injection of 1% acetic acid. Immediately after administering the acetic acid, the number of writhings were counted and recorded for the subsequent 10 minutes. Analgesic potency was taken as difference between a test group mean and its control.

The conditions of data set [6]: overdose, about twenty 500 mg tablets; cited from earlier work.
Data set [7] concerns platelet aggregation induced by collagen, arachidonic acid (AA) and adenosine diphosphate (ADP). The conditions noted are these: Dupin et al.; cited from earlier work.

Like-named read-outs stand apart in the source and are kept apart here. Marks after values point to notes of the source that are not given here. A value given as a limit tells only on which side of the number the result lay.

With `CC(=O)Oc1ccccc1C(=O)O` [Aspirin], in data set [1] (dose 150 mg/kg), the “Mean paw volume ± SEM after 5 hr” value came out at 0.58 ± 0.08 mL and the “Anti-inflammatory Activity Mean ± SEM” value is 28 ± 9. Besides, in data set [1] (dose 500 mg/kg), the “Mean paw volume ± SEM after 5 hr” value was 0.23 ± 0.03 mL and the “Anti-inflammatory Activity Mean ± SEM” value was 71 ± 3. Further, the Survival in data set [2] (50 mg/kg IP 2 hours before PAF 11 μg/kg IV) was 7/10*.
In the case of `CC(=O)Nc1ccc(O)cc1` [Paracetamol, 4-hydroxyacetanilide], the “Mean paw volume ± SEM after 5 hr” value was 0.75 ± 0.06 mL in data set [1] (dose 300 mg/kg) and 0.72 ± 0.07 mL in data set [1] (dose 500 mg/kg). Besides, the “Anti-inflammatory Activity Mean ± SEM” value in data set [1] (dose 300 mg/kg) worked out at 6 ± 2; in data set [1] (dose 500 mg/kg) it was 10 ± 3. Besides, the IC50 (commonly the concentration that inhibits the measured activity by half) in data set [3] (aggregation agent AA, read-out: IC50 ± SEM, platelet aggregation induced by AA) is 136 ± 1 µM; in data set [3] (aggregation agent PAF, read-out: IC50 ± SEM, platelet aggregation induced by PAF), 167 ± 8 µM; in data set [3] (aggregation agent collagen, read-out: IC50 ± SEM, platelet aggregation induced by Collagen), 263 ± 1 µM. In addition, the inhibition (as a rule, how much of the control response was suppressed) at 500 mg/kg in data set [4] (AA 1.7 mM, read-out: % inhibition of in vivo platelet aggregation induced by AA) turned out to be 5 ± 3%; in data set [4] (PAF 0.8 μM, read-out: % inhibition of in vivo platelet aggregation induced by PAF) it was 8 ± 2%; in data set [5] (Mus musculus, 500 mg/kg oral), 89%. The Survival in data set [2] (300 mg/kg IP 2 hours before PAF 11 μg/kg IV) is given as 0/10; in data set [2] (500 mg/kg IP 2 hours before PAF 11 μg/kg IV), 2/10. Besides, the values for the No. of writhings in data set [5] (300 mg/kg oral) and in data set [5] (500 mg/kg oral) were 20 and 3.2, respectively. In addition, at 300 mg/kg the inhibition in data set [5] (Mus musculus, 300 mg/kg oral) was 33%. For the same compound, in data set [6], the “dose that may cause hepatocellular necrosis” value is ≥ 10 g.
Take `CC(=O)Nc1cccc(O)c1` [3-hydroxyacetanilide]: the “in vitro inhibition of platelet aggregation” value in data set [7] is given as “comparable in vitro inhibition”.
